Values of other authors as cited in patent US12280058B2, “Gasotransmitter metabolites and Alzheimer's disease” (Board of Supervisors of Louisiana State University and …, priority 2020, dated 2025).

Key:
[1] = molecular target: CSE (Homo sapiens, UniProt P32929); conditions: read-out: IC50 (CSE inhibitor)
[2] = test system: infarct; conditions: administration

Chain of CSE (P32929 whole entry, species assumed): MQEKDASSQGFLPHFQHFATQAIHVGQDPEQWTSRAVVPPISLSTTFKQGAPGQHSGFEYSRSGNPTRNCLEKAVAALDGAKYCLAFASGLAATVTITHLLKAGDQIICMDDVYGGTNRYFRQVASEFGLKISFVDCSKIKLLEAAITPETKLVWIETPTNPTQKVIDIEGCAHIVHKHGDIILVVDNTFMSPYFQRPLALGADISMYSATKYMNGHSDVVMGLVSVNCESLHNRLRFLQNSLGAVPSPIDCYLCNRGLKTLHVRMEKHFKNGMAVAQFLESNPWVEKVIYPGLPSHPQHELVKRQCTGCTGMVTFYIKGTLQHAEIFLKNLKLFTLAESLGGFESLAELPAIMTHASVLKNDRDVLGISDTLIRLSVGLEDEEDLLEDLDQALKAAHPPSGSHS

IC50 [1] [µM]	Structure (SMILES)	infarct volume / size of infarct [2]
40	C#CC[C@H](N)C(=O)O	
30	CCOc1ccc2nc(Sc3nc(Nc4cccc([N+](=O)[O-])c4)nc(Nc4cc(OC)ccc4OC)n3)sc2c1 [compound 1157172, 2-[(4-(2,5-dimethoxyanilino)-6-(3-nitroanilino)-1,3,5-triazin-2-yl)sulfanyl]-6-ethoxy-1,3-benzothiazole]	
	S [sodium hydrosulfide]	increased infarct volume
< 1	NCCO/C=C/[C@H](N)C(=O)O [L-aminoethoxyvinylglycine]	
